According to PubChem BioAssay (NCI):
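A five-concentration, 48-hour dose response in 96-well plates underlies each endpoint, interpolated linearly between surrounding concentrations. GI50: concentration for 50% inhibition of growth. At the TGI there is no net growth.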

Tests used:
Assay in all cases: DTP human tumour cell line panel, 48 h
ACHN renal = tested on: ACHN renal
UO-31 renal = tested on: UO-31 renal
UACC-257 melanoma = tested on: UACC-257 melanoma
LOX IMVI melanoma = tested on: LOX IMVI melanoma
SF-295 CNS = tested on: SF-295 CNS
TK-10 renal = tested on: TK-10 renal
COLO 205 colon = tested on: COLO 205 colon
SK-OV-3 ovarian = tested on: SK-OV-3 ovarian
RXF 393 renal = tested on: RXF 393 renal
SNB-75 CNS = tested on: SNB-75 CNS

Compound	GI50 (ACHN renal) [µM]	TGI (ACHN renal) [µM]	GI50 (UO-31 renal) [µM]	TGI (UO-31 renal) [µM]	GI50 (UACC-257 melanoma) [µM]	TGI (UACC-257 melanoma) [µM]	GI50 (LOX IMVI melanoma) [µM]	TGI (LOX IMVI melanoma) [µM]	GI50 (SF-295 CNS) [µM]	TGI (SF-295 CNS) [µM]	GI50 (TK-10 renal) [µM]	TGI (TK-10 renal) [µM]	GI50 (COLO 205 colon) [µM]	TGI (COLO 205 colon) [µM]	GI50 (SK-OV-3 ovarian) [µM]	TGI (SK-OV-3 ovarian) [µM]	GI50 (RXF 393 renal) [µM]	TGI (RXF 393 renal) [µM]	GI50 (SNB-75 CNS) [µM]	TGI (SNB-75 CNS) [µM]
Cc1cc(Nc2ccc(Cl)cc2)nc(NCCCNc2ccnc3cc(Cl)ccc23)n1	1.63	3.06	1.49	2.96	1.8	3.39	1.64	3.18	1.64	3.04	1.73	3.19	1.66	3.31	1.65	3.01	1.52	3.08	1.33	2.6
NC(Cc1ccccc1CP(=O)(O)O)C(=O)O (stereo not given)		> 100		> 100		> 100		> 100		> 100		> 100		> 100		> 100		> 100		> 100
